For 6 compounds, IC50 results are on record in patent US12016864B2, “LOX enzyme inhibiting methods and compositions” (ANOVIA BIOSCIENCES, INC., priority 2021, dated 2024).

For assay [1], the target named is T1, Recombinant human LOXL2 (lysyl oxidase like 2) (Homo sapiens, UniProt Q9Y4K0).
T1 construct: purchased R&D systems
T1 sequence (Q9Y4K0 26-774): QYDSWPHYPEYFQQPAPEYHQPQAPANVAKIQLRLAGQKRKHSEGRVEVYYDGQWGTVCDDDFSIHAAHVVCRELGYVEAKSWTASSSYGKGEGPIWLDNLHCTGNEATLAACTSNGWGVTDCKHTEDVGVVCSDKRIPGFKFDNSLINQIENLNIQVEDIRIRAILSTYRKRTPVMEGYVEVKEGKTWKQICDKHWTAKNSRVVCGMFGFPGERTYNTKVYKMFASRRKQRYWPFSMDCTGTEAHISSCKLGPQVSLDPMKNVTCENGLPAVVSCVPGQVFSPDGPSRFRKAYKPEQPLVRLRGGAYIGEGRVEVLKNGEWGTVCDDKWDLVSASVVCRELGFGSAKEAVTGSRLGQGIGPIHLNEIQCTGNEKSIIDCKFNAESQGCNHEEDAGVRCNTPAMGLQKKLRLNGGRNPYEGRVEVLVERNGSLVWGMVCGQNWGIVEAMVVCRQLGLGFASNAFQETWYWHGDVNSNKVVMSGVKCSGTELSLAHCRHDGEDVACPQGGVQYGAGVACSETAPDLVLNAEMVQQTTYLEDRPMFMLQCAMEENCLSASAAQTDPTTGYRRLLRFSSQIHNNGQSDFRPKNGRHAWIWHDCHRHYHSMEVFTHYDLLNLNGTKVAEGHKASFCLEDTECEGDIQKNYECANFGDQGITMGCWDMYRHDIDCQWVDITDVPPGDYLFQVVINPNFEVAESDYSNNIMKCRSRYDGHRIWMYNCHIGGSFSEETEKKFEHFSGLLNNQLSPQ
In words: LOXL2 inhibition assay, fluorometric (cadaverine / HRP / Amplex Red). It counts as biochemical. As to conditions: recombinant human LOXL2 130 nM; 30 min preincubation at 37° C.; 2.5 mM cadaverine; read-out: Activity Range LOXL2. The method in brief:
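Recombinant human LOXL2 or LOXL3 in 1.2 M urea, 50 mM sodium borate pH 8.0, 10 mM CaCl, preincubated with compound 30 min at 37 °C. Cadaverine substrate added; H2O2 detected by HRP/Amplex Red fluorescence, read kinetically for 60 min at 37 °C. Initial-rate slopes, background-subtracted and normalised to DMSO, fitted to a 4-parameter curve with bottom fixed at 0.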

In assay [2] the target is T2, Recombinant human LOXL3 (lysyl oxidase like 3) (Homo sapiens, UniProt P58215).
T2 construct: purchased R&D systems
T2 sequence (P58215 26-753): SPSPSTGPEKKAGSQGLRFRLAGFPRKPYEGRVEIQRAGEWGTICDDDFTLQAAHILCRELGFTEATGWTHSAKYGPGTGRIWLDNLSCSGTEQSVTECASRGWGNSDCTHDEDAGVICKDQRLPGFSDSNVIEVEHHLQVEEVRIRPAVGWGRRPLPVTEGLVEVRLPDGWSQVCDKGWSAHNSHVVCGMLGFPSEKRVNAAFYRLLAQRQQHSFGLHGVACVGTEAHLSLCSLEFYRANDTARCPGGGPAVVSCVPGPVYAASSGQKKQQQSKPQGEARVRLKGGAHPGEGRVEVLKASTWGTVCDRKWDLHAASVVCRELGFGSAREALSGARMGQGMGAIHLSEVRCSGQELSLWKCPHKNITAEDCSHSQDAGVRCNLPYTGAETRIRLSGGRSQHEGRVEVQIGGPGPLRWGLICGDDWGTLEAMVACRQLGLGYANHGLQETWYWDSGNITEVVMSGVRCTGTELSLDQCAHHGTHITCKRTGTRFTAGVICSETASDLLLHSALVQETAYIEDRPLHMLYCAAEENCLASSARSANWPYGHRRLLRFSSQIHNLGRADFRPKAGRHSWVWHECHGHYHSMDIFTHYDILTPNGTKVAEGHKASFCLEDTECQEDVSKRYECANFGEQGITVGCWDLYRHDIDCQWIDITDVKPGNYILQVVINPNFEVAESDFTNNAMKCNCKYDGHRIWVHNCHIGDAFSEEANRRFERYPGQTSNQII
In words: LOXL3 inhibition assay, fluorometric (cadaverine / HRP / Amplex Red). It counts as biochemical. As to conditions: recombinant human LOXL3 150 nM; 30 min preincubation at 37° C.; 1 mM cadaverine; read-out: Activity Range LOXL3. As to the method:
The ability of compounds to inhibit one or more of the lysyl oxidases LOXL2 and/or LOXL3 was determined using a fluorometric assay. This assay measures the activity of lysyl oxidases by coupling the reaction with horseradish peroxidase-catalyzed […]. The activity assay protocol uses cadaverine as substrate that releases hydrogen peroxide upon transformation by the specific LOX family enzyme present in the sample. Hydrogen peroxide is in turn detected using a red fluorescence substrate for HRP-coupled reactions (Amplex Red Enzyme Assays, Thermo Scientific Fisher). This leads to increase in fluorescence that can be easily detected at Ex/Em=540/590 nm in a fluorescence microplate reader.
Recombinant human LOXL2 (lysyl oxidase like 2) and recombinant human LOXL3 (lysyl oxidase like 3) were purchased from R&D systems and assays were performed in 1.2 M urea, 50 mM sodium borate buffer pH 8.0, and 10 mM CaCl.
5 μl of freshly prepared reaction buffer were delivered to reaction wells. Compounds were resuspended in 100% DMSO at 10 mM and delivered into buffer using acoustic technology (Echo550; nanoliter range). A 3× solution of LOXL2 or LOXL3 in reaction buffer was prepared (“enzyme solution”) and 5 μL of enzyme solution was added into the reaction wells. Buffer only was added to column 1 for no protein control. Reactions were incubated for 30 minutes at 37° C. A 3× mixture of cadaverine, Amplex Red, and HRP (“Substrate/Detection Mix) was prepared and subsequently 5 μL of the mixture added to each reaction well. Progress of reactions was monitored for 60 minutes at 37° C. using Clariostar plate reader (ex 530-12, ems 600-40). For all activity assays, pan-LOX inhibitor CCT365623 (Tang et al, 2017) and LOXL2/LOXL3 inhibitor PAT-1251 (PharmaKea) were included as standards.
For the data analysis, the slope of the linear portion of the progress curve was calculated using Clariostar software. Typical analysis interval was between 8-30 min, but varied between experiments. The background-subtracted signals (No protein wells are considered as background) were converted to % activity relative to DMSO controls. Data was analyzed using GraphPad Prism 4 with “sigmoidal dose-response (variable slope)”; 4 parameters with Hill Slope. Constraints: Bottom=Constant equal to 0. Top=Must be less than 120.

For `NCc1ccnc(S(=O)(=O)C[C@@H]2C[C@H](c3ccccc3)CN2S(=O)(=O)N2CCOCC2)c1` (racemic) [Example 195, Cis-(2-(((1-(Morpholinosulfonyl)-4-phenylpyrrolidin-2-yl)methyl)sulfonyl)pyridin-4-yl)methanamine 2,2,2-trifluoroacetate], the IC50 in assay [1] and in assay [2] was no more than 500 nM throughout.

As to `NCc1ccnc(S(=O)(=O)C[C@@H]2C[C@H](c3ccccc3)CN2S(=O)(=O)N2CCS(=O)(=O)CC2)c1` (racemic) [Example 196, cis-4-((2-(((4-(Aminomethyl)pyridin-2-yl)sulfonyl)methyl)-4-phenylpyrrolidin-1-yl)sulfonyl)thiomorpholine 1,1-dioxide 2,2,2-trifluoroacetate], the IC50 in assay [1] and in assay [2] was no more than 500 nM in each case.

As for `NCc1ccnc(S(=O)(=O)C[C@H]2C[C@@H](c3ccccc3)CN2S(=O)(=O)N2CCOCC2)c1` (single isomer, unassigned) [Example 195A], the IC50 in assay [1] and in assay [2] was no more than 500 nM throughout.

As to `NCc1ccnc(S(=O)(=O)C[C@@H]2C[C@H](c3ccccc3)CN2S(=O)(=O)N2CCOCC2)c1` (single isomer, unassigned) [Example 195B], the IC50 in assay [1] and in assay [2] was no more than 500 nM in each case.

In the case of `NCc1ccnc(S(=O)(=O)C[C@@H]2C[C@H](c3ccccc3)CN2S(=O)(=O)N2CCS(=O)(=O)CC2)c1` [Example 196A, 4-(((2S,4R)-2-(((4-(aminomethyl)pyridin-2-yl)sulfonyl)methyl)-4-phenylpyrrolidin-1-yl)sulfonyl)thiomorpholine 1,1-dioxide 2,2,2-trifluoroacetate], the IC50 in assay [1] and in assay [2] was no more than 500 nM throughout.

For the compound `NCc1ccnc(S(=O)(=O)C[C@H]2C[C@@H](c3ccccc3)CN2S(=O)(=O)N2CCS(=O)(=O)CC2)c1` [Example 196B, 4-(((2R,4S)-2-(((4-(aminomethyl)pyridin-2-yl)sulfonyl)methyl)-4-phenylpyrrolidin-1-yl)sulfonyl)thiomorpholine 1,1-dioxide 2,2,2-trifluoroacetate], the IC50 in assay [1] and in assay [2] was no more than 500 nM in each case.
